Test results: PubChem BioAssay AID330 (DTP/NCI, 2004)
Values joined by “and” are separate entries in the source; they are usually repeats but may differ in a detail not shown here. Identical values can stand only once. Toxic doses and inconclusive results are not listed. Rule for the calls: active = survival T/C of 150% or more; inactive = T/C below 125% in these data. Peptide text beside a SMILES is read from it.

Test system: P388 leukemia ip, CD2F1 mice, survival T/C
Test: NCI In Vivo Anticancer Drug Screen. Data for tumor model P388 Leukemia (intraperitoneal) in CD2F1 (CDF1) mice
Settings: endpoint: median survival time, higher = longer survival
How it was run: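 Mice carrying the transplanted tumor received test compound or vehicle. Survival was recorded in each group, and the value is the treated-group measurement divided by that of the vehicle-treated control group.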

[1] = dose: 25.0 mg/kg/injection, schedule: Q04DX003 (ip), vehicle: Klucel (hydroxypropylcellulose) (HPC)
[2] = dose: 50.0 mg/kg/injection, schedule: Q04DX003 (ip), vehicle: Klucel (hydroxypropylcellulose) (HPC)
[3] = dose: 50.0 mg/kg/injection, schedule: Q01DX009 (ip), vehicle: saline
[4] = dose: 100.0 mg/kg/injection, schedule: Q01DX009 (ip), vehicle: saline
[5] = dose: 200.0 mg/kg/injection, schedule: Q01DX009 (ip), vehicle: saline
[6] = dose: 50.0 mg/kg/injection, schedule: Q01DX009 (ip), vehicle: Klucel (hydroxypropylcellulose) (HPC)
[7] = dose: 100.0 mg/kg/injection, schedule: Q01DX009 (ip), vehicle: Klucel (hydroxypropylcellulose) (HPC)
[8] = dose: 100.0 mg/kg/injection, schedule: Q01DX009 (ip), vehicle: saline with Tween-80
[9] = dose: 50.0 mg/kg/injection, schedule: Q01DX005 (ip), vehicle: Klucel (hydroxypropylcellulose) (HPC)
[10] = dose: 100.0 mg/kg/injection, schedule: Q01DX005 (ip), vehicle: Klucel (hydroxypropylcellulose) (HPC)
[11] = dose: 200.0 mg/kg/injection, schedule: Q01DX005 (ip), vehicle: Klucel (hydroxypropylcellulose) (HPC)

Measured: T/C

O=Nc1ccc(Cl)cc1
inactive: dose: 12.5 mg/kg/injection, schedule: Q04DX003 (ip), vehicle: Klucel (hydroxypropylcellulose) (HPC) 103 % of control | [1] 101 % of control | [2] 93 % of control

Cc1ccc(C)c(C(O)(c2cc(C)ccc2C)C2(O)CCCCC2)c1
inactive: dose: 50.0 mg/kg/injection, schedule: Q01DX005 (ip), vehicle: saline with Tween-80 106 % of control | dose: 100.0 mg/kg/injection, schedule: Q01DX005 (ip), vehicle: saline with Tween-80 103 % of control | dose: 200.0 mg/kg/injection, schedule: Q01DX005 (ip), vehicle: saline with Tween-80 97 % of control

NS(=O)(=O)c1cccnc1Nc1cccc(Cl)c1Cl
inactive: [3] 100 % of control | [4] 100 % of control | [5] 96 % of control

CCOC(=O)C1Cc2c(OC)cc(OC)cc2OC1=O (stereo not drawn)
inactive: dose: 60.0 mg/kg/injection, schedule: Q01DX005 (ip), vehicle: saline with Tween-80 97 % of control | dose: 120.0 mg/kg/injection, schedule: Q01DX005 (ip), vehicle: saline with Tween-80 94 % of control | dose: 240.0 mg/kg/injection, schedule: Q01DX005 (ip), vehicle: saline with Tween-80 92 % of control

C(CCOCC1CO1)COCC1CO1 (stereo not drawn)
inactive: dose: 25.0 mg/kg/injection, schedule: Q01DX009 (ip), vehicle: Klucel (hydroxypropylcellulose) (HPC) 108 % of control and 111 % of control | [6] 110 % of control | [7] 117 % of control

Cc1cc(=O)c2ccccc2s1
inactive: dose: 50.0 mg/kg/injection, schedule: Q01DX009 (ip), vehicle: saline with Tween-80 104 % of control | [8] 113 % of control

CCCCCCCCS(=O)(=O)OCCCCOS(=O)(=O)CCCCCCCC
inactive: dose: 31.25 mg/kg/injection, schedule: Q01DX005 (ip), vehicle: Klucel (hydroxypropylcellulose) (HPC) 103 % of control | dose: 62.5 mg/kg/injection, schedule: Q01DX005 (ip), vehicle: Klucel (hydroxypropylcellulose) (HPC) 103 % of control | dose: 125.0 mg/kg/injection, schedule: Q01DX005 (ip), vehicle: Klucel (hydroxypropylcellulose) (HPC) 103 % of control

O=C1C=CC(=O)O1 (tested in a mixture with another compound)
inactive: dose: 6.25 mg/kg/injection, schedule: Q01DX009 (ip), vehicle: saline 117 % of control | dose: 12.5 mg/kg/injection, schedule: Q01DX009 (ip), vehicle: saline 100 % of control | dose: 25.0 mg/kg/injection, schedule: Q01DX009 (ip), vehicle: saline 102 % of control and 108 % of control and 89 % of control | dose: 25.0 mg/kg/injection, schedule: Q04DX003 (ip), vehicle: saline 120 % of control | [3] 108 % of control [middle of 4 runs] | [4] 100 % of control and 108 % of control and 109 % of control | dose: 150.0 mg/kg/injection, schedule: Q01DX009 (ip), vehicle: saline 120 % of control | [5] 108 % of control and 115 % of control and 120 % of control

CC1=CC(=O)c2c(O)cccc2C1=O
inactive: dose: 2.0 mg/kg/injection, schedule: Q01DX009 (ip), vehicle: Klucel (hydroxypropylcellulose) (HPC) 108 % of control | dose: 2.0 mg/kg/injection, schedule: Q01DX009 (ip), vehicle: saline with Tween-80 110 % of control | dose: 4.0 mg/kg/injection, schedule: Q01DX009 (ip), vehicle: Klucel (hydroxypropylcellulose) (HPC) 113 % of control and 116 % of control | dose: 4.0 mg/kg/injection, schedule: Q01DX009 (ip), vehicle: saline with Tween-80 114 % of control | dose: 8.0 mg/kg/injection, schedule: Q01DX009 (ip), vehicle: Klucel (hydroxypropylcellulose) (HPC) 122 % of control

CCN(CC)Cc1cc(N=Nc2cccc3ccccc23)c2ccccc2c1O
inactive: [6] 102 % of control | [7] 108 % of control | dose: 200.0 mg/kg/injection, schedule: Q01DX009 (ip), vehicle: Klucel (hydroxypropylcellulose) (HPC) 100 % of control

C=COCC(C)C (tested in a mixture with another compound)
inactive: dose: 1.56 mg/kg/injection, schedule: Q01DX009 (ip), vehicle: saline with Tween-80 108 % of control | dose: 3.12 mg/kg/injection, schedule: Q01DX009 (ip), vehicle: saline with Tween-80 101 % of control | dose: 6.25 mg/kg/injection, schedule: Q01DX009 (ip), vehicle: saline with Tween-80 96 % of control

CC(=O)Oc1n[nH]c(=O)n1-c1ccccc1
inactive: dose: 50.0 mg/kg/injection, schedule: Q01DX005 (ip), vehicle: Klucel + Tween-80 107 % of control | dose: 100.0 mg/kg/injection, schedule: Q01DX005 (ip), vehicle: Klucel + Tween-80 107 % of control | dose: 200.0 mg/kg/injection, schedule: Q01DX005 (ip), vehicle: Klucel + Tween-80 98 % of control

CC(C)(C)N1COCCOC1
inactive: [8] 118 % of control

CNCCC(Oc1ccc(C(F)(F)F)cc1)c1ccccc1 (stereo not drawn)
inactive: dose: 25.0 mg/kg/injection, schedule: Q04DX002 (ip), vehicle: saline with Tween-80 106 % of control | dose: 50.0 mg/kg/injection, schedule: Q04DX002 (ip), vehicle: saline with Tween-80 106 % of control | dose: 100.0 mg/kg/injection, schedule: Q04DX002 (ip), vehicle: saline with Tween-80 106 % of control

COC1C=C(Cl)C(=O)C(C)O1 (stereo not drawn)
inactive: [1] 100 % of control | [2] 106 % of control | dose: 100.0 mg/kg/injection, schedule: Q04DX003 (ip), vehicle: Klucel (hydroxypropylcellulose) (HPC) 100 % of control

COc1cc(NC(C)=O)c2ncccc2c1NC(C)=O
inactive: [9] 99 % of control | [10] 96 % of control | [11] 87 % of control

COC(=O)C[CH2][Sn]([CH3])([CH3])[CH2]CC(=O)OC
inactive: [9] 104 % of control | [10] 100 % of control

CC(=O)NC(C(=O)N1CCCC1)=C(C)C
inactive: dose: 100.0 mg/kg/injection, schedule: Q04DX002 (ip), vehicle: saline 100 % of control | dose: 200.0 mg/kg/injection, schedule: Q04DX002 (ip), vehicle: saline 98 % of control | dose: 400.0 mg/kg/injection, schedule: Q04DX002 (ip), vehicle: saline 107 % of control

O=C(O)C1CSC(c2cccnc2)N1 (stereo not drawn)
inactive: [3] 89 % of control | [4] 90 % of control

CCN1C=C/C(=C\C=C/c2cc[n+](CC)c3ccccc23)c2ccccc21
inactive: dose: 0.15 mg/kg/injection, schedule: Q04DX003 (ip), vehicle: saline 118 % of control | dose: 0.22 mg/kg/injection, schedule: Q04DX003 (ip), vehicle: saline 118 % of control | dose: 0.33 mg/kg/injection, schedule: Q04DX003 (ip), vehicle: saline 122 % of control

CC[PH+](CC)CC.CC[PH+](CC)CC.[Au]
inactive: dose: 0.15 mg/kg/injection, schedule: Q01DX009 (ip), vehicle: water 104 % of control and 91 % of control | dose: 0.31 mg/kg/injection, schedule: Q01DX009 (ip), vehicle: water 100 % of control and 107 % of control | dose: 0.62 mg/kg/injection, schedule: Q01DX009 (ip), vehicle: water 118 % of control and 122 % of control | dose: 1.25 mg/kg/injection, schedule: Q01DX009 (ip), vehicle: water 118 % of control

CC(=O)c1cc[c]([Sn]([CH3])([Cl])[c]2ccccc2)cc1 (stereo not drawn)
inactive: dose: 7.5 mg/kg/injection, schedule: Q01DX005 (ip), vehicle: Klucel (hydroxypropylcellulose) (HPC) 100 % of control | dose: 15.0 mg/kg/injection, schedule: Q01DX005 (ip), vehicle: Klucel (hydroxypropylcellulose) (HPC) 107 % of control | dose: 60.0 mg/kg/injection, schedule: Q01DX005 (ip), vehicle: Klucel (hydroxypropylcellulose) (HPC) 108 % of control

CC(O)C(N)C(=O)NC(C(=O)NC(C(=O)O)C(C)O)C(C)O (stereo not drawn) (H-Thr-Thr-Thr-OH; configuration not given here)
inactive: dose: 50.0 mg/kg/injection, schedule: Q01DX005 (ip), vehicle: saline 104 % of control | dose: 100.0 mg/kg/injection, schedule: Q01DX005 (ip), vehicle: saline 92 % of control | dose: 200.0 mg/kg/injection, schedule: Q01DX005 (ip), vehicle: saline 104 % of control

CCOP(=O)(Nc1ccc2c(c1)Cc1c-2cc(Cl)c(NC(C)=O)c1Cl)OCC
inactive: [9] 95 % of control | [10] 97 % of control | [11] 97 % of control

CSC(=S)N=Nc1c(O)[nH]c2ccccc12
inactive: [3] 93 % of control | [4] 96 % of control | [5] 99 % of control
